Experimental data taken from EP4722219A1 (Gan & Lee Pharmaceuticals Co., Ltd., priority 2023, dated 2024).

Target: T1, AR protein (Homo sapiens, UniProt P10275)
T1 construct: host or cells: VCaP
T1 sequence (P10275 1-920): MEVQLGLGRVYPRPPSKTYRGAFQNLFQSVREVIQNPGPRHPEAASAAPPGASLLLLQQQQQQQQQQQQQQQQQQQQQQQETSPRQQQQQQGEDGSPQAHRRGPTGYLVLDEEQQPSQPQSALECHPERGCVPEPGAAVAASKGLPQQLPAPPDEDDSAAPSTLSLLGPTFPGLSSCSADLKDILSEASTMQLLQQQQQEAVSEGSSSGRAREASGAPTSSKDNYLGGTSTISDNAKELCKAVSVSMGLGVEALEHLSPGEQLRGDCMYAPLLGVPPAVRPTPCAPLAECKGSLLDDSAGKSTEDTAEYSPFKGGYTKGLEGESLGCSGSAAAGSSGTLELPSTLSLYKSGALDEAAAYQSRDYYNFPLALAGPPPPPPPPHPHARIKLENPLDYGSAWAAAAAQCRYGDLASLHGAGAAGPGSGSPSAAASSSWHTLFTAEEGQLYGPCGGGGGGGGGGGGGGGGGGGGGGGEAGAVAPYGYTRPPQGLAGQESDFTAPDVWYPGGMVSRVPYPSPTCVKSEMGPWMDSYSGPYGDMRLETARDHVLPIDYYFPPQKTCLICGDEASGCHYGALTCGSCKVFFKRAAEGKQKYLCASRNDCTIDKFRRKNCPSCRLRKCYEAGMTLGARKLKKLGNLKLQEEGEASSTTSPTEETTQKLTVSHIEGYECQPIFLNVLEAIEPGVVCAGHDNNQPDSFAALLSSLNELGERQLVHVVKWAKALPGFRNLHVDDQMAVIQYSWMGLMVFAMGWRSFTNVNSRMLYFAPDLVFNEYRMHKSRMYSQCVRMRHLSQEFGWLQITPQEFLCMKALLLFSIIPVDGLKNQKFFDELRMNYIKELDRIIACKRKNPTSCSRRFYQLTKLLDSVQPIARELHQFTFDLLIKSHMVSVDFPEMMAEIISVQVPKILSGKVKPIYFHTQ
Test: AR protein degradation in VCaP cells (Western blot)
Type: cell-based
Conditions: 8h
Summary of the method: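 AR-positive VCaP human prostate cancer cells grown in DMEM with 10% FBS were plated in six-well plates at 3×10^5 cells/well and incubated overnight. Compounds were then added at 1 µL/well alongside a solvent control and incubated for 8h. Lysates in RIPA buffer with protease inhibitor were quantified by BCA and run by SDS-PAGE. AR was detected by Western blot, and degradation was calculated from band grayscale normalized to GAPDH.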

| Molecule | Degradation rate of AR protein in VCaP cells (0.5 nM) | Degradation rate of AR protein in VCaP cells (5 nM) | AR protein degradation rate at fixed concentration (%) at 0.0005 µM (0.5 nM) | AR protein degradation rate at fixed concentration (%) at 0.005 µM (5 nM) |
| --- | --- | --- | --- | --- |
| COc1cc(O[C@H]2C(C)(C)[C@H](NC(=O)c3ccc(N4CCC(CN5CCC6(CCc7cc(C(=O)N[C@H]8CCC(=O)NC8=O)c(F)cc7O6)CC5)(OC)CC4)cc3)C2(C)C)ccc1C#N [A-P-36] | 9% | 45% |  |  |
| Cn1c(=O)n(C2CCC(=O)NC2=O)c2cc3c(cc21)C1(CCN(CC2CCN(c4ccc(C(=O)N[C@H]5CC[C@H](Oc6ccc(C#N)c(Cl)c6)CC5)nn4)CC2)CC1)CO3 (some centres unmarked) [A-P-10] |  |  | 75% | 78% |
| COc1cc(O[C@H]2C(C)(C)[C@H](NC(=O)c3ccc(N4CCC(CN5CCC6(CC5)COc5c6ccc(C(=O)N[C@H]6CCC(=O)NC6=O)c5F)CC4)cc3)C2(C)C)ccc1C#N [A-P-83] | 36% | 66% |  |  |
| COc1cc(O[C@H]2C(C)(C)[C@H](NC(=O)c3ccc(N4CCC(C)(CN5CC6(CCC7(CC6)COc6c7ccc7c6CN(C6CCC(=O)NC6=O)C7=O)C5)CC4)cc3)C2(C)C)ccc1C#N (relative stereo) [A-P-4] | 50% | 78% |  |  |
| COc1cc(O[C@H]2C(C)(C)[C@H](NC(=O)c3ccc(N4CCC(CN5CCC6(CCc7cc(C(=O)N[C@H]8CCC(=O)NC8=O)c(F)cc7O6)CC5)CC4)cc3)C2(C)C)ccc1C#N [A-P-30] | 36% | 71% |  |  |
| Cn1c(=O)n(C2CCC(=O)NC2=O)c2cc3c(cc21)C1(CCN(C2CC4(CCN(c5ccc(C(=O)N[C@H]6CC[C@H](Oc7ccc(C#N)c(Cl)c7)CC6)nn5)CC4)C2)CC1)CO3 (relative stereo) [A-P-12, N-((1r,4r)-4-(3-chloro-4-cyanophenoxy)cyclohexy 1)-6-(2-(3-(2,6-dioxopiperidin-3-yl)-1-methyl-2-oxo-2,3-dihydro-1H,6H-spiro[benzofuro[5,6-d]imidazole-7,4'-piperidin]-1'-yl)-7-azaspiro[3.5]nonan-7-yl)pyridazine-3-carboxamide] | 88% | 88% |  |  |
| (S)-3-((1-(4-(((S)-2-(3-chloro-4-cyanophenyl)-3-methyl-2,8-diazaspiro[4.5]decan-8-yl)phenyl)piperidin-4-yl)methyl)-N-(((S)-2,6-dioxopiperidin-3-yl)-1,2,3,4,4a,5-hexahydrobenzo[b]pyrazi no[1,2-d][1,4]oxazine-8-carboxamide [A-P-57] | -31% | -21% |  |  |
| COc1cc(O[C@H]2C(C)(C)[C@H](NC(=O)c3ccc(N4CCC5(CC4)CC(N4CCC6(CC4)COc4cc7c(cc46)n(C)c(=O)n7C4CCC(=O)NC4=O)C5)nn3)C2(C)C)ccc1C#N (relative stereo) [A-P-14, N-((1r,3r)-3-(4-cyano-3-methoxyphenoxy)-2,2,4,4-tetramethylcyclobutyl)-6-(2-(3-(2,6-dioxopiperidin-3-yl)-1-methyl-2-oxo-2,3-dihydro-1H,6H-spiro[benzofuro[5,6-d]imidazole-7,4'-piperidin]-1'-yl)-7-azaspiro[3.5]nonan-7-yl)pyridazine-3-carboxamide] | 63% | 82% |  |  |
| COc1cc(O[C@H]2C(C)(C)[C@H](NC(=O)c3ccc(N4CCC(C)(CN5CCC6(CCc7cc(C(=O)N[C@H]8CCC(=O)NC8=O)c(F)cc7O6)CC5)CC4)cn3)C2(C)C)ccc1C#N [A-P-43, 1'-((1-(6-(((1r,3r)-3-(4-cyano-3-methoxyphenoxy)-2,2,4,4-tetramethylcyclobutyl)carbamoyl)pyridin-3-yl)-4-methylpiperidin-4-yl)methyl)-N-((S)-2,6-dioxopiperidin-3-yl)-7-fluorospiro[chroman-2,4'-piperidin]-6-carboxamide] | 33% | 32% |  |  |
| COc1cc(O[C@H]2C(C)(C)[C@H](NC(=O)c3ccc(N4CCC(C)(CN5CCC6(CCc7cc(F)c(C(=O)N[C@H]8CCC(=O)NC8=O)cc7O6)CC5)CC4)cc3)C2(C)C)ccc1C#N [A-P-38, 1-(1-(4-((1R,3R)-3-((4-cyano-3-methoxyphenoxy)-2,2,4,4-tetramethylcyclobutyl)carbamoyl)phenyl)-4-methylpiperidin-4-methyl)-N-((S)-2,6-dioxopiperidin-3-yl)-6-fluorospiro[chroman-2,4'-piperidin]-7-carboxamide] | -21% | -5% |  |  |
| Cn1c(=O)n(C2CCC(=O)NC2=O)c2ccc3c(c21)OCC31CCN(CC2CCN(c3ccc(C(=O)N[C@H]4CC[C@H](Oc5ccc(C#N)c(Cl)c5)CC4)nn3)CC2)CC1 (some centres unmarked) [A-P-24] |  |  | 85% | 85% |
| COc1cc(O[C@H]2C(C)(C)[C@H](NC(=O)c3ccc(N4CCC(CN5CCC6(CC5)COc5c6ccc(C(=O)N[C@H]6CCC(=O)NC6=O)c5F)(OC)CC4)cc3)C2(C)C)ccc1C#N [A-P-86, 1'-((1-(4-(((1r,3r)-3-(4-cyano-3-methoxyphenoxy)-2,2,4,4-tetramethylcyclobutyl)carbamoyl)phenyl)-4-methoxypiperidin-4-yl)methyl)-N-((S)-2,6-dioxopiperidin-3-yl)-7-fluoro-2H-spiro[benzofuran-3,4'-piperidin]-6-carboxamide] | -30% | 1% |  |  |
| COc1cc(O[C@H]2C(C)(C)[C@H](NC(=O)c3ccc(N4CCC(C)(CN5CCC6(CCc7cc(C(=O)N[C@H]8CCC(=O)NC8=O)c(F)cc7O6)CC5)CC4)cc3)C2(C)C)ccc1C#N [A-P-31, 1'-((1-((4-((1r,3r)-3-(4-cyano-3-methoxyphenoxy)-2,2,4,4-tetramethylcyclobutyl)carbamoyl)phenyl)-4-methylpiperidin-4-yl)methyl)-N-((S)-2,6-dioxopiperidin-3-yl)-7-fluorospiro[2,4'-piperidin]-6-carboxamide] |  |  | -13% | 41% |
